Measurements: PMC6941952, “A homogeneous bioluminescent immunoassay to probe cellular signaling pathway regulation” (Communications Biology, 2020)
Several values for one entry are separate records, joined by “and”; a condition that tells them apart may be missing. Equal values may be shown once.

Tested on: total IκBα
Test: NanoBiT cell-based immunoassay, total IκBα in MCF-7 cells
Design: species or system human
Details: for IKB with CHX Raw data / IKB with CHX Subtract reagent background / IkB Average: with CHX; for IkB Average: background subtracted
Experimental: Prior to NanoBiT Cell-Based Immunoassay, 50,000 cells were seeded in 160 µl of complete growth media per well of a 96-well plate and incubated overnight. […] If necessary, the cell culture media were replaced with serum-free media after the cells were stably adherent on the plate and incubated overnight. To treat cells with activators or inhibitors, medium was changed to 30 µl of medium containing inhibitors. If activation of a specific pathway is needed, the cells were stimulated with 10 µl of medium containing activators. To lyse the cells, 10 µl of lysis buffer containing 0.1% digitonin diluted in 1X immunoassay buffer with protease and phosphatase inhibitors was added and the plates were mixed vigorously for 20 min. Then, 50 µl of an antibody mix containing two primary antibodies against the target protein and NanoBiT detecting antibodies (0.3 µl each per well), diluted in 1X immunoassay buffer was added to the lysates. The plates were incubated at 23 °C for 90 min, followed by the addition of 25 µl of Nano-Glo® reagent consisting of Nano-Glo® Luciferase Assay Substrate mixed with 1X immunoassay buffer. Luminescence was measured using a plate-reading luminometer.
Single dose or dose response inhibitor treatments were performed prior to activation of the pathways as follows. For IκBα, the cells were treated in 30 µl medium with IKK16 or MG132 for 60 min before the addition of 10 µl of DMEM containing appropriate concentration of TNFα. To measure phosphorylation of AKT or STAT3, the corresponding NanoBiT immunoassays were developed with MCF-7 or A431 cells, respectively, according the same scheme used to develop the IκBα assay using the primary antibodies for AKT and STAT3 described in the reagents section. […] Treatment with LY294002 was performed in 30 µl medium and cells were incubated for 60 min before the addition of 1 µM Insulin. To measure STAT3 phosphorylation, A431 cells were incubated overnight in DMEM medium without serum. […] After addition of the stimulators, the cells were incubated for additional times as follows. IκBα phosphorylation and degradation analyses required both time courses and single time points as described in figures. […] The NanoBiT immunoassay protocol was followed as described above.
All 96-well assay plates were read using a GloMax® 96 Microplate Luminometer from Promega. The instrument was set to 0.5 s integration time. In order to obtain net change of signal, the reagent background values (signal from the well containing all reagent except primary antibodies) were subtracted from the sample values. To plot and analyze the data, Microsoft Excel and GraphPad Prism® Software were used. IC50 values were determined by using a nonlinear regression fit to a sigmoidal dose response (variable slope).

## C[C@@H]1C[C@@H]([C@H](O)CC2CC(=O)NC(=O)C2)C(=O)[C@@H](C)C1 [CHX]
TNF 0 min
  IKB with CHX Raw data: 55360 and 57660 and 54100 and 60230
  IKB with CHX Subtract reagent background: 43590 and 45890 and 42330 and 48460
  IkB Average: 45068
TNF 5 min
  IKB with CHX Raw data: 58100 and 62010 and 65600 and 63320
  IKB with CHX Subtract reagent background: 46330 and 50240 and 53830 and 51550
  IkB Average: 50488
TNF 10 min
  IKB with CHX Raw data: 40310 and 45450 and 45320 and 45290
  IKB with CHX Subtract reagent background: 28540 and 33680 and 33550 and 33520
  IkB Average: 32323
TNF 20 min
  IKB with CHX Raw data: 19760 and 23860 and 25280
  IKB with CHX Subtract reagent background: 7990 and 12090 and 13510
  IkB Average: 10395
TNF 30 min
  IKB with CHX Raw data: 17770 and 17940 and 21410 and 21590
  IKB with CHX Subtract reagent background: 6000 and 6170 and 9640 and 9820
  IkB Average: 7908
TNF 40 min
  IKB with CHX Raw data: 17270 and 17950 and 20500 and 19500
  IKB with CHX Subtract reagent background: 5500 and 6180 and 8730 and 7730
  IkB Average: 7035
TNF 60 min
  IKB with CHX Raw data: 18390 and 17430 and 19370 and 18920
  IKB with CHX Subtract reagent background: 6620 and 5660 and 7600 and 7150
  IkB Average: 6758
TNF 80 min
  IKB with CHX Raw data: 19070 and 18960 and 19260 and 19280
  IKB with CHX Subtract reagent background: 7300 and 7190 and 7490 and 7510
  IkB Average: 7373
TNF 100 min
  IKB with CHX Raw data: 19610 and 18970 and 19990 and 19730
  IKB with CHX Subtract reagent background: 7840 and 7200 and 8220 and 7960
  IkB Average: 7805
TNF 120 min
  IKB with CHX Raw data: 20170 and 20220 and 20080 and 18790
  IKB with CHX Subtract reagent background: 8400 and 8450 and 8310 and 7020
  IkB Average: 8045

## C[C@@H]1C[C@@H]([C@H](O)CC2CC(=O)NC(=O)C2)C(=O)[C@@H](C)C1 [cycloheximide]
MCF-7 cells, TNFα 50 ng per ml, 20 µg per ml added after 30 min
  IκBα after the degradation phase (de novo synthesis): not detected
